Values after ≈ are worked out from the molar mass of the structure shown.
Legend:
[1] = Microsomal metabolic stability; conditions: human; for half-life at 1 µM: liver microsomes
Procedure: Permeability was measured across Caco-2 cells cultured in a Millipore 96-well Caco-2 plate. For apical to basolateral (A→B) permeability, 10 μM compound was added to the apical (A) side and amount of permeation was determined on the basolateral (B) side; for basolateral to apical (B→A) permeability, the compound was added to the B side and the amount of permeation was determine on the A side. Time points were taken at 2 h.
Table S3. Metabolic stability. Metabolic stability was measured using human liver microsomes. […]

[2] = tested on: nonreplicating M. tuberculosis; assay: Kill kinetics, nonreplicating (nutrient starved) bacteria; type: cell-based, Mycobacterium tuberculosis; conditions: nutrient starvation, PBS-tyloxapol
CYP2C19 = CYP2C19 (Homo sapiens, UniProt P33261); assay: biochemical
Procedure: (§1) Table S4. Inhibition of cytochrome P450s.
(§2) Compounds were tested for inhibition of P450s using the enzyme substrate pairs and conditions noted. IC50s (µM) were calculated. Control P450 inhibitors were included for each isoform.
(§3) For each compound, the analytical method was developed as follows. Analyte signal was optimized for each compound by ESI positive or negative ionization mode. An MS2 scan or an SIM scan was used to optimize fragmenter voltage and a product ion analysis was used to identify the best fragment for analysis. The collision energy was optimized using a product ion or MRM scan. An ionization ranking was assigned indicating the compound’s ease of ionization. Samples […]
(§4) 1200 HPLC and a CTC PAL chilled autosampler, all controlled by MassHunter software (Agilent).
(§5) After separation on a C18 reverse phase HPLC column (Agilent Zorbax StableBond 3.5µm, 2.1 x 30 mm) using an acetonitrile -water gradient system, peaks were analyzed by mass spectrometry (MS) using ESI ionization in MRM mode.
(§6) (1 picture or pasted object on this page, not shown here)
(§7) Serial dilutions of a 10 mM stock solution were prepared in acetonitrile:DMSO (9:1). The final DMSO concentration was < 0.2%. Compounds were incubated with human liver microsomes in the presence of 2 mM NADPH in 100 mM potassium phosphate (pH 7.4) containing 5 mM magnesium chloride and a probe substrate, in a 200 µl assay final volume in duplicate. The probe substrate concentrations including bupropion (CYP2B6), amodiaquine (CYP2C8), tolbutamide (CYP2C9), mephenytoin (CYP2C19), dextromethorphan (CYP2D6) and midazolam/testosterone […]
(§8) After incubation at 37 °C, reactions were terminated by addition of methanol containing internal standard (propranolol) for analytical quantification. The quenched samples were kept on ice for 10 min and centrifuged at 4 °C for 10 min. The supernatant was removed and the probe substrate metabolite was analyzed by LC-MS/MS (Agilent Technologies Triple Quad LC/MS). A decrease in the formation of the metabolite compared to vehicle control

CYP2C8 = molecular target: T1, CYP2C8 (Homo sapiens, UniProt P10632); assay: biochemical
T1 sequence (P10632 1-490): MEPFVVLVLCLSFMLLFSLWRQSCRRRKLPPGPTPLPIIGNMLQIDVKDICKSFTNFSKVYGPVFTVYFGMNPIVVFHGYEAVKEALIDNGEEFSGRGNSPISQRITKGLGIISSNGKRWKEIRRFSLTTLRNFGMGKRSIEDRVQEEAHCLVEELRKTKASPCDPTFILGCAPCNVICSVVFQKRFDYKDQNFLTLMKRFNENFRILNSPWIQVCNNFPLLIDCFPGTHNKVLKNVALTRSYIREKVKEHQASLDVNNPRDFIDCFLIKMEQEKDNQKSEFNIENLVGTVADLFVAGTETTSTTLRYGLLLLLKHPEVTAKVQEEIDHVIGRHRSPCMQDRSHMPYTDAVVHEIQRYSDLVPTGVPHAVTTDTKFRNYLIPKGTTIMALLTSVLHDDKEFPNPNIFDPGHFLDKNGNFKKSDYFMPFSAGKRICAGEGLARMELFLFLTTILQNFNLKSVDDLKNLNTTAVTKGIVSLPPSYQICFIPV
Procedure: as §1, §2, §3, §4, §5, §6, §7, §8

[3] = molecular target: SPase activity in M. tuberculosis H37Rv cell membrane fractions (Mycobacterium tuberculosis, UniProt P9WKA1); assay: Inhibition of secretion (SPase activity) in membrane fractions; type: biochemical; conditions: fluorogenic peptide substrate 2 μM; 4 h, 37 °C
[4] = tested on: M. tuberculosis strain under expressing LepB (LepB-UE); assay: microbe, parasite or virus in culture; type: cell-based, Mycobacterium tuberculosis
[5] = tested on: M. tuberculosis wild-type strain; assay: MIC against wild-type M. tuberculosis; type: cell-based, Mycobacterium tuberculosis; conditions: concentration required to inhibit growth by 90%, 5 days culture

Chain of CYP2C19 (P33261 whole entry): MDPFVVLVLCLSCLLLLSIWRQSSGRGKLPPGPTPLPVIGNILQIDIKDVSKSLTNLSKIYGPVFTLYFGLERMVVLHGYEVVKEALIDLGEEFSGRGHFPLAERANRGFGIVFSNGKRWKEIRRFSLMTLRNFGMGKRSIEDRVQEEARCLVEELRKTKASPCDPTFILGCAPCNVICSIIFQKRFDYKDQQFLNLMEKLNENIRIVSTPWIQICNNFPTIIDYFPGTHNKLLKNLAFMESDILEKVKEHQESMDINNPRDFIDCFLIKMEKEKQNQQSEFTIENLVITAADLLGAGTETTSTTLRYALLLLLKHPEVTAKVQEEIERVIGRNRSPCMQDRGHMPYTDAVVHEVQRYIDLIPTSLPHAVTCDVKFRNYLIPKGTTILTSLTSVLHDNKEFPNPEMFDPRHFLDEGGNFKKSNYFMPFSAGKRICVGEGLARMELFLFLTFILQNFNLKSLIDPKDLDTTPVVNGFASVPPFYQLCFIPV
Chain of SPase activity in M. tuberculosis H37Rv cell membrane fractions (P9WKA1 whole entry): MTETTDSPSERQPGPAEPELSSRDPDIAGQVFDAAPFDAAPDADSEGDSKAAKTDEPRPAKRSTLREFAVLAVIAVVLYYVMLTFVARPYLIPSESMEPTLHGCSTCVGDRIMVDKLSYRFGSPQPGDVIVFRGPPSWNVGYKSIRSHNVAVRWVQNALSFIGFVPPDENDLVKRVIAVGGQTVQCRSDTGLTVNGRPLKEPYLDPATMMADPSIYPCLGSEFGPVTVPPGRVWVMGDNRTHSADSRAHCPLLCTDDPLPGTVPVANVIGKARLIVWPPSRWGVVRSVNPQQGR

| SMILES | half-life at 1 µM ([1]; pH 7.4) [min] | Percent remaining %REavg ([1]; microsomes, 5 min, 1 µM, pH 7.4) [%] | microsomal CLint at 1 µM ([1]; microsomes, pH 7.4) [µL/min/mg] | remaining at 5 min, 1 µM ([1]; microsomes, pH 7.4, Percent remaining %REavg) [%] | concentration giving sterilization of nonreplicating organisms [2] [µM] | IC50 (CYP2C19) [µM] | IC50 (CYP2C8) [µM] | IC50 [3] [µM] | MIC LepB-UE [4] [µM] | MIC ([4]; Mycobacterium tuberculosis, 120 h) [µM] | MIC ([5]; Mycobacterium tuberculosis, 120 h, read-out: MIC Wild type) [µM] | MIC Wild type [5] [µM] |
| --- | --- | --- | --- | --- | --- | --- | --- | --- | --- | --- | --- | --- |
| CCCCNC(=S)Nc1nc2ccccc2s1 [Molecule 1, 1-(benzo[d]thiazol-2-yl)-3-butylthiourea] | 24 | 98.1 | 96 | 96.6 | 20 | 4.6 | > 20 | > 200 |  |  |  |  |
| CCCCNC(=S)Nc1nc(C)co1 [Molecule 21, 1-butyl-3-(4-methyloxazol-2-yl)thiourea] | 13 |  | 179 |  |  | > 20 | > 20 |  | 8.4 ± 3.4 (≈ 1.79 µg/mL) | 8 to 9 (≈ 1.71 to 1.92 µg/mL) | 10 (≈ 2.13 µg/mL) | 10 ± 2.0 (≈ 2.13 µg/mL) |
